Reference: patent publication US11891405B2, “Furo[3,4-b]pyrrole-containing BTK inhibitor” (CHIA TAI TIANQING PHARMACEUTICAL GROUP CO., LTD., priority 2018, dated 2024)
pIC50: −log10 of the molar value.

Key:
BTK(WT) = BTK(WT) (Homo sapiens, UniProt Q06187); test: Screening for BTK inhibitory activity; format: biochemical
Experimental: 1.1 Screening for BTK Inhibitory Activity
350 ng/μL BTK stock solution was diluted with kinase buffer (50 mM HEPES, 10 mM MgCl2, 2 mM DTT, 1 mM EGTA, 0.01% Tween 20), and 6 μL of 1.67× working solution at 0.0334 ng/μL (final concentration: 0.02 ng/μL) was added to each well. Different compounds dissolved in DMSO were added to the wells using a nanoliter pipettor, resulting in the final concentration of 1000 nM to 0.244 nM (4-fold gradient for 7 concentrations in total), and blank control wells (without enzyme) and negative control wells (with enzyme, plus vehicle DMSO) were set, 2 replicate wells for each well. After enzyme was reacted with the compound or vehicle for 30 min, 5×ATP at 100 μM (final concentration: 20 μM) prepared with kinase buffer was mixed with 5×substrate at 0.5 μM (final concentration: 0.1 μM, ULight-poly GT) at a ratio of 1:1, and the mixture was added to each well at 4 μL/well. After being sealed with a film, the plate was incubated at room temperature for 2 h, then 5 μL of 4×EDTA at 40 mM (final concentration: 10 mM) was added to each well. After the plate was incubated for 5 min at room temperature, 5 μL of 4× detection reagent at 8 nM (final concentration: 2 nM, Ab) was added to each well, followed by incubation at room temperature for 1 h. The plate was read using a PE Envision multi-functional microplate reader ([…], emission: 665 nm), and IC50 was calculated by four-parameter fitting.

TEC = target: T1, TEC (Homo sapiens, UniProt P42680); test: Screening for TEC inhibitory activity; format: biochemical
T1 sequence (P42680 1-631): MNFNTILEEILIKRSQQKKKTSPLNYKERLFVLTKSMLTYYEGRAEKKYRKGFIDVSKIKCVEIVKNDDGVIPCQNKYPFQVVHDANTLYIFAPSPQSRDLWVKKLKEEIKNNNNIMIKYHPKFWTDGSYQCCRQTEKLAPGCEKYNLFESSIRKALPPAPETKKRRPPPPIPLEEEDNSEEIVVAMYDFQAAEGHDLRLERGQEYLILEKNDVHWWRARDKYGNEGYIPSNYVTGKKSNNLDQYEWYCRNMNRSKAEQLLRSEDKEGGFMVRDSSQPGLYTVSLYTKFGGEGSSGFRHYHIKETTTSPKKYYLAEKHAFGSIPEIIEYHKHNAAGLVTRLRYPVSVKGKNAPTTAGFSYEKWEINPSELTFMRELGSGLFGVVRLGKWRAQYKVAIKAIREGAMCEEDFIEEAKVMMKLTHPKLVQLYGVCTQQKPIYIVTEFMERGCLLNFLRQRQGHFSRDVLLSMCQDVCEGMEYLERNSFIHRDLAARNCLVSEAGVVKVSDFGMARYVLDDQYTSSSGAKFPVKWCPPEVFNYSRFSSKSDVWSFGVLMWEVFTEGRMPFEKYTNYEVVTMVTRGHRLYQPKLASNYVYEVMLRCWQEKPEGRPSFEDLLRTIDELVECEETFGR
Experimental: 1.3 Screening for TEC Inhibitory Activity
50 ng/μL TEC stock solution was diluted with kinase buffer (50 mM HEPES, 10 mM MgCl2, 2 mM DTT, 1 mM EGTA, 0.01% Tween 20), and 6 μL of 1.67× working solution at […] (final concentration: 0.008 ng/μL) was added to each well. Different compounds dissolved in DMSO were added to the wells using a nanoliter pipettor, resulting in the final concentration of 1000 nM to 0.24 nM (4-fold gradient for 7 concentrations in total), and blank control wells (without enzyme) and negative control wells (with enzyme, plus vehicle DMSO) were set. After enzyme was reacted with the compound or vehicle for 30 min, 5×ATP at 50 μM (final concentration: 10 μM) prepared with kinase buffer was mixed with 5× substrate at 0.5 μM (final concentration: 0.1 μM, ULight-poly GT) at a ratio of 1:1, and the mixture was added to each well at 4 μL/well. After being sealed with a film, the plate was incubated at room temperature for 2 h, then 5 μL of 4×EDTA at 40 mM (final concentration: 10 mM) was added to each well. After the plate was incubated for 5 min at room temperature, 5 μL of 4× detection reagent at 8 nM (final concentration: 2 nM, Eu-anti-phospho-tyrosine antibody) was added to each well, followed by incubation at room temperature for 1 h. The plate was read using a PE Envision multi-functional microplate reader (excitation: 320 nm, emission: 665 nm), and IC50 was calculated by four-parameter fitting.

[1] = target: T2, BTK (Y223) phosphorylation in Ramos lymphoma cells (Homo sapiens, UniProt Q06187); test: BTK (Y223) phosphorylation inhibition at cell level; format: cell-based
T2 construct: Ramos lymphoma cells in logarithmic growth phase were centrifuged; endogenous in cells; host or cells: Ramos lymphoma cells
Experimental: EXPERIMENTAL EXAMPLE 2: SCREENING FOR BTK (Y223) PHOSPHORYLATION INHIBITION ACTIVITY AT CELL LEVEL
20 μL of 30% hydrogen peroxide was added in 860 μL of double distilled water to prepare 200 mM hydrogen peroxide. PV (sodium pervanadate): 10 μL of 200 mmol/L sodium orthovanadate was reacted with 10 μL of 200 mmol/L hydrogen peroxide in 80 μL of RPMI 1640 complete medium at room temperature for 15 min, and the reaction solution was diluted with RPMI 1640 complete medium to 6 mM. It was prepared freshly prior to use. Ramos lymphoma cells in logarithmic growth phase were centrifuged at 1500 rpm for 3 min using a low-speed centrifuge, added with a proper amount of RPMI 1640 complete medium, resuspended and counted. A proper amount of corresponding culture medium was added to a proper amount of cell suspension to adjust the cell density to about 1-2×10E7 cells/mL. The cells at the above cell density were seeded in a 384-well plate at 20 μL/well, then 5 μL of compound was added to each well, and the plate was incubated for 1 h. 20 mM PV was diluted with RPMI 1640 complete medium to 6 mM (final concentration: 1 mM), added to wells at 5 μL/well according to the plate distribution, and incubated for 15-20 min. The blank group was wells seeded with cells, without compound and PV, and the control group was wells seeded with cells, without compound and with PV. 10 μL of lysis buffer (4×) containing blocking buffer was added immediately and incubated by shaking at room temperature for 30 min. After the mixture was mixed, 16 μL of lysate was transferred to another 384-well small-volume white plate. The plate was added with 4 μL of pre-mixed antibody (vol/vol) in assay buffer, covered, centrifuged to mix well, and incubated overnight at room temperature. The 665 nm/620 nm signal value was detected using a PE Envision multi-functional microplate reader, and IC50 was calculated by four-parameter fitting.

Sequence of BTK(WT) (Q06187 whole entry): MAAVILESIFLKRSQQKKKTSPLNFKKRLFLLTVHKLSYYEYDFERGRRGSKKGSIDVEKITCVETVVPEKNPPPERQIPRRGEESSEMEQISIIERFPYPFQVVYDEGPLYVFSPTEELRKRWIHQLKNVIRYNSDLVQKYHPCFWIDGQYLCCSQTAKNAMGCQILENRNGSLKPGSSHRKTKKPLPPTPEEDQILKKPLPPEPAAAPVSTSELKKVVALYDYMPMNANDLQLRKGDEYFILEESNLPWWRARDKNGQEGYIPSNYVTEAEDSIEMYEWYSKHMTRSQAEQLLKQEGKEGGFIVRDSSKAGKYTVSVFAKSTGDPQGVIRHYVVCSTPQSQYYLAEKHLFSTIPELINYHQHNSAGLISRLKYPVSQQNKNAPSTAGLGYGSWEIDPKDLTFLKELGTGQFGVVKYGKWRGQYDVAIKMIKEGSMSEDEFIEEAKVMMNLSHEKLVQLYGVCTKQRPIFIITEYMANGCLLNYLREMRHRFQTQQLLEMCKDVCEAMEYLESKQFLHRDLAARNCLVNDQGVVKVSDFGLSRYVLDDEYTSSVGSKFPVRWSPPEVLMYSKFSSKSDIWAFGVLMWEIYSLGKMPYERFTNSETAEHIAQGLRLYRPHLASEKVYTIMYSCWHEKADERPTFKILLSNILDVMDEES
T2 sequence (Q06187 whole entry): as above

pIC50 (BTK(WT)) | pIC50 (TEC) | pIC50 [1] | SMILES
7.91 | 7.60 | 7.18 | CC#CC(=O)N1[C@@H]2COC[C@@H]2C[C@H]1c1nc(-c2ccc(C(=O)Nc3cc(C(F)(F)F)ccn3)cc2F)c2c(N)nccn12 [Compound I-4, 4-(8-AMINO-3-((2S,3AR,6AS)-1-(BUT-2-YNOYL)HEXAHYDRO-1H-FURO[3,4-B]PYRROL-2-YL)IMIDAZO[1,5-A]PYRAZIN-1-YL)-3-FLUORO-N-(4-(TRIFLUOROMETHYL)PYRIDIN-2-YL)BENZAMIDE]
8.01 |  | 7.28 | Nc1nccn2c([C@@H]3C[C@H]4COC[C@H]4N3C(=O)C3CC3)nc(-c3ccc(C(=O)Nc4cc(C(F)(F)F)ccn4)cc3F)c12 [Compound I-7, 4-(8-AMINO-3-((2S,3AR,6AS)-1-(CYCLOPROPANECARBONYL)HEXAHYDRO-1H-FURO[3,4-B]PYRROL-2-YL)IMIDAZO[1,5-A]PYRAZIN-1-YL)-3-FLUORO-N-(4-(TRIFLUOROMETHYL)PYRIDIN-2-YL)BENZAMIDE]
7.67 | 6.96 | 7.60 | C=CC(=O)N1[C@@H]2COC[C@@H]2C[C@H]1c1nc(-c2ccc(C(=O)Nc3ccccn3)cc2)c2c(N)nccn12 [Compound I-3, 4-(3-((2S,3AR,6AS)-1-ACRYLOYLHEXAHYDRO-1H-FURO[3,4-B]PYRROL-2-YL)-8-AMINOIMIDAZO [1,5-A]PYRAZIN-1-YL)-N-(PYRIDIN-2-YL)BENZAMIDE]
7.28 | 6.81 | 7.52 | CC#CC(=O)N1[C@@H]2COC[C@@H]2C[C@H]1c1nc(-c2ccc(C(=O)Nc3ccccn3)cc2)c2c(N)nccn12 [Compound I-1, 4-(8-amino-3-((2S,3aR,6aS)-1-(but-2-ynoyl)hexahydro-1H-furo[3,4-b]pyrrol-2-yl)imidazo [1,5-a]pyrazin-1-yl)-N-(pyridin-2-yl)benzamide]
